Several values for one entry are separate records, joined by “and”; a condition that tells them apart may be missing. Identical values can stand only once. ± gives the expanded uncertainty stated by the source.
Assay: mn = molality of the nth substance listed, in mol/kg
Conditions: 350 kPa, Liquid; for molar volume: Vibrating tube method; for apparent molar heat capacity: Extra sensitive DSC

O=[N+]([O-])[O-].O=[N+]([O-])[O-].[Pb+2] [lead(II) nitrate] + O
Conditions | apparent molar heat capacity [J/K/mol] | apparent molar volume | molar volume
278.15 K, m1 = 0.01959 | – | 3.11e-05 ± 7.8e-06 m3/mol | 3.11e-05 ± 1e-07 m3/mol
278.15 K, m1 = 0.01983 | – | 3.8e-05 ± 9e-06 m3/mol | 3.8e-05 ± 1e-06 m3/mol
278.15 K, m1 = 0.02999 | – | 3.7e-05 ± 6e-06 m3/mol and 3.36e-05 ± 5.5e-06 m3/mol | 3.7e-05 ± 1e-06 m3/mol and 3.36e-05 ± 1e-07 m3/mol
278.15 K, m1 = 0.04862 | – | 3.8e-05 ± 4e-06 m3/mol | 3.8e-05 ± 1e-06 m3/mol
278.15 K, m1 = 0.05035 | – | 3.73e-05 ± 3.7e-06 m3/mol | 3.73e-05 ± 1e-07 m3/mol
278.15 K, m1 = 0.1004 | – | 3.52e-05 ± 1.8e-06 m3/mol and 4.01e-05 ± 2e-06 m3/mol | 4.01e-05 ± 1e-07 m3/mol and 3.52e-05 ± 1e-07 m3/mol
278.15 K, m1 = 0.2435 | – | 3.781e-05 ± 8.2e-07 m3/mol | 3.781e-05 ± 3e-08 m3/mol
278.15 K, m1 = 0.392 | – | 3.95e-05 ± 5.6e-07 m3/mol | 3.95e-05 ± 3e-08 m3/mol
278.15 K, m1 = 0.4885 | – | 4.08e-05 ± 4.7e-07 m3/mol | 4.08e-05 ± 3e-08 m3/mol
283.15 K, m1 = 0.01959 | – | 3.4e-05 ± 8.5e-06 m3/mol | 3.4e-05 ± 1e-07 m3/mol
283.15 K, m1 = 0.01983 | – | 3.8e-05 ± 9e-06 m3/mol | 3.8e-05 ± 1e-06 m3/mol
283.15 K, m1 = 0.02999 | – | 3.9e-05 ± 6e-06 m3/mol and 3.62e-05 ± 6e-06 m3/mol | 3.9e-05 ± 1e-06 m3/mol and 3.62e-05 ± 1e-07 m3/mol
283.15 K, m1 = 0.04862 | – | 3.9e-05 ± 4e-06 m3/mol | 3.9e-05 ± 1e-06 m3/mol
283.15 K, m1 = 0.05035 | – | 3.93e-05 ± 3.9e-06 m3/mol | 3.93e-05 ± 1e-07 m3/mol
283.15 K, m1 = 0.1004 | – | 4.14e-05 ± 2.1e-06 m3/mol and 3.73e-05 ± 1.9e-06 m3/mol | 4.14e-05 ± 1e-07 m3/mol and 3.73e-05 ± 1e-07 m3/mol
283.15 K, m1 = 0.2435 | – | 3.976e-05 ± 8.6e-07 m3/mol | 3.976e-05 ± 3e-08 m3/mol
283.15 K, m1 = 0.392 | – | 4.126e-05 ± 5.8e-07 m3/mol | 4.126e-05 ± 3e-08 m3/mol
283.15 K, m1 = 0.4885 | 4.5 ± 2.1 | 4.243e-05 ± 4.9e-07 m3/mol | 4.243e-05 ± 4e-08 m3/mol
288.15 K, m1 = 0.01959 | – | 3.508e-05 ± 8.8e-06 m3/mol | 3.508e-05 ± 3e-08 m3/mol
288.15 K, m1 = 0.01983 | – | 3.8e-05 ± 9e-06 m3/mol | 3.8e-05 ± 1e-06 m3/mol
288.15 K, m1 = 0.02999 | – | 3.9e-05 ± 6e-06 m3/mol and 3.71e-05 ± 6.1e-06 m3/mol | 3.9e-05 ± 1e-06 m3/mol and 3.71e-05 ± 1e-07 m3/mol
288.15 K, m1 = 0.04862 | – | 3.96e-05 ± 4e-06 m3/mol | 3.96e-05 ± 1e-07 m3/mol
288.15 K, m1 = 0.05035 | – | 4.05e-05 ± 4e-06 m3/mol | 4.05e-05 ± 1e-07 m3/mol
288.15 K, m1 = 0.1004 | – | 4.12e-05 ± 2.1e-06 m3/mol and 3.851e-05 ± 1.9e-06 m3/mol | 4.12e-05 ± 1e-07 m3/mol and 3.851e-05 ± 3e-08 m3/mol
288.15 K, m1 = 0.2435 | – | 4.073e-05 ± 8.8e-07 m3/mol | 4.073e-05 ± 3e-08 m3/mol
288.15 K, m1 = 0.392 | – | 4.246e-05 ± 6e-07 m3/mol | 4.246e-05 ± 4e-08 m3/mol
288.15 K, m1 = 0.4885 | 12.8 ± 2.1 | 4.323e-05 ± 5e-07 m3/mol | 4.323e-05 ± 4e-08 m3/mol
293.15 K, m1 = 0.4885 | 18.6 ± 2.1 | – | –
298.15 K, m1 = 0.01959 | – | 3.86e-05 ± 9.7e-06 m3/mol | 3.86e-05 ± 3e-08 m3/mol
298.15 K, m1 = 0.01983 | – | 4.1e-05 ± 1e-05 m3/mol | 4.1e-05 ± 1e-06 m3/mol
298.15 K, m1 = 0.02999 | – | 4.19e-05 ± 6.9e-06 m3/mol and 3.835e-05 ± 6.3e-06 m3/mol | 4.19e-05 ± 1e-07 m3/mol and 3.835e-05 ± 3e-08 m3/mol
298.15 K, m1 = 0.04862 | – | 4.22e-05 ± 4.3e-06 m3/mol | 4.22e-05 ± 1e-07 m3/mol
298.15 K, m1 = 0.05035 | – | 4.377e-05 ± 4.3e-06 m3/mol | 4.377e-05 ± 4e-08 m3/mol
298.15 K, m1 = 0.1004 | – | 4.33e-05 ± 2.2e-06 m3/mol and 4.134e-05 ± 2.1e-06 m3/mol | 4.33e-05 ± 1e-07 m3/mol and 4.134e-05 ± 3e-08 m3/mol
298.15 K, m1 = 0.2435 | – | 4.368e-05 ± 9.5e-07 m3/mol | 4.368e-05 ± 4e-08 m3/mol
298.15 K, m1 = 0.392 | 2.9 ± 2.6 | 4.54e-05 ± 6.4e-07 m3/mol | 4.54e-05 ± 4e-08 m3/mol
298.15 K, m1 = 0.4885 | 22.3 ± 2.1 | 4.567e-05 ± 5.3e-07 m3/mol | 4.567e-05 ± 4e-08 m3/mol
303.15 K, m1 = 0.392 | 6 ± 2.6 | – | –
303.15 K, m1 = 0.4885 | 24.9 ± 2.1 | – | –
308.15 K, m1 = 0.01959 | – | 4.027e-05 ± 1e-05 m3/mol | 4.027e-05 ± 3e-08 m3/mol
308.15 K, m1 = 0.01983 | – | 4.04e-05 ± 1e-05 m3/mol | 4.04e-05 ± 1e-07 m3/mol
308.15 K, m1 = 0.02999 | – | 4.2e-05 ± 6.9e-06 m3/mol and 3.7e-05 ± 6.1e-06 m3/mol | 4.2e-05 ± 1e-07 m3/mol and 3.7e-05 ± 1e-07 m3/mol
308.15 K, m1 = 0.04862 | – | 4.27e-05 ± 4.4e-06 m3/mol | 4.27e-05 ± 1e-07 m3/mol
308.15 K, m1 = 0.05035 | – | 4.631e-05 ± 4.6e-06 m3/mol | 4.631e-05 ± 4e-08 m3/mol
308.15 K, m1 = 0.1004 | – | 4.39e-05 ± 2.2e-06 m3/mol and 4.262e-05 ± 2.2e-06 m3/mol | 4.39e-05 ± 1e-07 m3/mol and 4.262e-05 ± 3e-08 m3/mol
308.15 K, m1 = 0.2435 | – | 4.56e-05 ± 9.9e-07 m3/mol | 4.56e-05 ± 4e-08 m3/mol
308.15 K, m1 = 0.392 | 8.2 ± 2.6 | 4.698e-05 ± 6.6e-07 m3/mol | 4.698e-05 ± 4e-08 m3/mol
308.15 K, m1 = 0.4885 | 26.6 ± 2.1 | 4.739e-05 ± 5.5e-07 m3/mol | 4.739e-05 ± 4e-08 m3/mol
313.15 K, m1 = 0.392 | 9.6 ± 2.6 | – | –
313.15 K, m1 = 0.4885 | 27.7 ± 2.1 | – | –
318.15 K, m1 = 0.01959 | – | – | 4.413e-05 ± 4e-08 m3/mol
318.15 K, m1 = 0.01983 | – | – | 4.13e-05 ± 1e-07 m3/mol
318.15 K, m1 = 0.02999 | – | – | 4.23e-05 ± 1e-07 m3/mol and 3.71e-05 ± 1e-07 m3/mol
318.15 K, m1 = 0.04862 | – | – | 4.32e-05 ± 1e-07 m3/mol
318.15 K, m1 = 0.05035 | – | – | 4.763e-05 ± 4e-08 m3/mol
318.15 K, m1 = 0.1004 | – | – | 4.49e-05 ± 4e-08 m3/mol and 4.36e-05 ± 1e-07 m3/mol
318.15 K, m1 = 0.2435 | – | – | 4.709e-05 ± 4e-08 m3/mol
318.15 K, m1 = 0.392 | 10.3 ± 2.6 | – | 4.824e-05 ± 4e-08 m3/mol
318.15 K, m1 = 0.4885 | 27.8 ± 2.1 | – | –

Source: the NIST ThermoML archive (doi:10.1016/j.jct.2003.09.013)
